The record followed here is US5177078A, “Piperazine derivatives” (John Wyeth & Brother Limited, priority 1990, dated 1993).

The structures appear in SMILES notation.

In assay [1] the target is T1, 5-HT1A receptor (Rattus norvegicus, UniProt P19327).
T1 construct: syndrome in the rat; from tissue; host or cells: living rat (endogenous receptor of the central nervous system)
T1 sequence (P19327 1-422): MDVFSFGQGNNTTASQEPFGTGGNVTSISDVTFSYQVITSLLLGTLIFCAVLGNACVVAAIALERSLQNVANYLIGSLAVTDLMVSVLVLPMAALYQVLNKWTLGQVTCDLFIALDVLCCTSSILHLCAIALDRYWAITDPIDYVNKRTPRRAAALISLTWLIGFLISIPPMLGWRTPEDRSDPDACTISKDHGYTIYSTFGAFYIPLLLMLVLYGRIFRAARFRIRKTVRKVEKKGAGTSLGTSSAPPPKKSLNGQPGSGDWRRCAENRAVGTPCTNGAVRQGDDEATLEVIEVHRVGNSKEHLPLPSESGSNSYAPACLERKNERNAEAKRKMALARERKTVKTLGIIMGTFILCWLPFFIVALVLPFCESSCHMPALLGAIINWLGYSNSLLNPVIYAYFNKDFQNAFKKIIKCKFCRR
The experiment in a line: 5-HT1A receptor binding activity in rat hippocampal membrane homogenate. The following applies: method of Alexander and Wood. The protocol: The compounds of the invention are tested for 5-HT1A receptor binding activity in rat hippocampal membrane homogenate by the method of B S Alexander and M D Wood, J Pharm Pharmacol, 1988, 40, 888-891.

Assay [2] has as its target T1, 5-HT1A receptor. In words: antagonism of 8-OH DPAT syndrome in the rat (5-HT1A receptor antagonism activity). The class given is in vivo. The procedure:
The compounds are tested for 5-HT1A receptor antagonism activity in a test involving the antagonism of 8-hydroxy-2-(di-n-propylamino)-tetralin (8-OH DPAT) syndrome in the rat. (R,S)-1-(2-Methoxyphenyl)-4-[2-(IH-imidazol-1-yl) -2-(phenyl)ethylpiperazine had MED of 1 mg/kg subcut and 10 mg/kg p.o when tested in this procedure.

`COc1ccccc1N1CCN(CC(c2ccccc2)n2ccnc2)CC1` (stereo not drawn) [Example 1, 1-(2-Methoxyphenyl)-4-[2-(1H-imidazol-1-yl)-2-(phenyl)ethyl]piperazine] yielded a half-maximal inhibitory concentration (IC50) on 5-HT1A receptor [1] of 15.8 nM. In addition, the values for the MED on 5-HT1A receptor [2] (p.o) and on 5-HT1A receptor [2] (subcut) were 10 mg/kg and 1 mg/kg, respectively.

As a reminder, the IC50 is the concentration at which inhibition is half-maximal.
